Numbers after ± are expanded uncertainties.
Experiment: xn = mol fraction of the nth substance listed
Conditions: 101 kPa, Liquid; for speed of sound: Sing-around technique in a fixed-path interferometer; for mass density: Vibrating tube method

c1ccc2c(c1)CCCC2 [1,2,3,4-tetrahydronaphthalene] + CCCCCCCCCC
Conditions	mass density, 293.15 K [kg/m3]	mass density, 303.15 K [kg/m3]	mass density, 313.15 K [kg/m3]	mass density, 323.15 K [kg/m3]	speed of sound, 293.15 K [m/s]	speed of sound, 303.15 K [m/s]	speed of sound, 313.15 K [m/s]	speed of sound, 323.15 K [m/s]	speed of sound, 333.15 K [m/s]
x1 = 0.1008	747.8 ± 0.3	740.2 ± 0.3	732.6 ± 0.3	724.9 ± 0.3	1269.3 ± 1.2	1230 ± 1.2	1191.3 ± 1.2	1153.1 ± 1.2	1115.5 ± 1.2
x1 = 0.2034	766.8 ± 0.3	759.1 ± 0.3	751.5 ± 0.3	743.8 ± 0.3	1285.2 ± 1.2	1246.1 ± 1.2	1207.6 ± 1.2	1169.6 ± 1.2	1132.1 ± 1.2
x1 = 0.3	786.3 ± 0.3	778.6 ± 0.3	770.9 ± 0.3	763.2 ± 0.3	1302.2 ± 1.2	1263.3 ± 1.2	1224.9 ± 1.2	1187.1 ± 1.2	1149.8 ± 1.2
x1 = 0.401	807.5 ± 0.3	799.8 ± 0.3	792.1 ± 0.3	784.3 ± 0.3	1320.2 ± 1.2	1281.4 ± 1.2	1243.1 ± 1.2	1205.4 ± 1.2	1168.2 ± 1.2
x1 = 0.494	828.5 ± 0.2	820.8 ± 0.3	812.9 ± 0.3	805.2 ± 0.3	1340.6 ± 1.2	1301.9 ± 1.2	1263.8 ± 1.2	1226.2 ± 1.2	1189.2 ± 1.2
x1 = 0.5949	852.8 ± 0.2	845.1 ± 0.2	837.3 ± 0.3	829.5 ± 0.3	1363.5 ± 1.2	1324.9 ± 1.2	1286.8 ± 1.2	1249.3 ± 1.2	1212.4 ± 1.2
x1 = 0.7009	880.2 ± 0.2	872.4 ± 0.2	864.7 ± 0.2	856.8 ± 0.3	1391.2 ± 1.2	1352.5 ± 1.2	1314.5 ± 1.2	1277.1 ± 1.2	1240.2 ± 1.2
x1 = 0.7974	907 ± 0.3	899.1 ± 0.3	891.4 ± 0.3	883.6 ± 0.3	1418.8 ± 1.2	1380.1 ± 1.2	1342.1 ± 1.2	1304.6 ± 1.2	1267.8 ± 1.2
x1 = 0.8997	937.9 ± 0.3	930 ± 0.3	922.1 ± 0.3	914.2 ± 0.3	1452.7 ± 1.2	1413.8 ± 1.2	1375.5 ± 1.2	1337.9 ± 1.2	1300.9 ± 1.2
x1 = 1	969.5 ± 0.2	961.6 ± 0.2	953.7 ± 0.2	945.7 ± 0.2	1489.5 ± 1.3	1450.1 ± 1.2	1411.5 ± 1.2	1373.6 ± 1.2	1336.4 ± 1.2

— the NIST ThermoML archive (doi:10.1016/j.jct.2011.09.001)
